From patent US8183230B2, “Antimicrobial preservatives to achieve multi-dose formulation using beta-cyclodextrins for liquid dosage forms” (priority 2004, dated 2012)

What was measured:
[1] = Solubility analysis (solubility method) for binding constant with SBE-CD
Description: Traditional solubility methods were performed initially to determine the solubility and binding constants of compound of Formula Ia and preservative with SBE-CD.
Binding was calculated for meta-cresol using solubility analysis. The experiment was performed at different concentrations of compound of Formula Ia to determine if there was any effect from the presence of drug in solution on the meta-cresol binding constant. Meta-cresol solubility was measured in excess (saturated) meta-cresol and the equilibrium binding constant was calculated using the following equation:
[formula] Where St is the total solubility of meta-cresol, s0 is the inherent solubility of meta-cresol, Lt is the total concentration of SBE-CD (ligand) and K11 is the equilibrium binding constant of meta-cresol assuming a 1 to 1 binding stoichiometry.

[2] = Equilibrium dialysis method for determining binding constants
From the text: In the present invention, the method to determine binding constants utilizes equilibrium dialysis in the development of a multi-use parenteral formulation containing SBE-CD and a preservative. In particular, the method was applied in developing a parenteral formulation comprising the compound of Formula Ia, a cyclodextrin (SBE-CD) and a preservative (meta-cresol). This approach is applicable to compounds other than the compound of Formula Ia in developing parenteral formulations and is within the scope of this invention. […] The significance of this procedure is its ability to measure the binding constant of multiple compounds competing for binding with the cyclodextrin. The experimental dialysis data also provides an easily interpreted representation of binding in the formulation by visualizing the degree of interaction by the equilibrium established following dialysis.
Equilibrium dialysis permits calculation of binding constants by modeling the resultant diffusion rate across a semi-permeable membrane with an equilibrium end point. Equilibrium dialysis is performed by allowing the substrate in a solution containing bound substrate and ligand in a donor compartment of an equilibrium dialysis apparatus (cell) to equilibrate over time with an acceptor compartment. Ono, N., Hirayama, F., Arima, H., Uekama, K. “Determination of Stability Constant of β-Cyclodextrin Complexes Using the Membrane Permeation Technique and the Permeation Behavior of Drug Competing Agent-β-Cyclodextrin Ternary Systems” Eur. J. Pharm. Sci. 1999 9:133-139. The acceptor cell contains no ligand. The membrane is semi-permeable allowing the typically low molecular weight substrates to freely diffuse, while the cyclodextrin (MW=2163) remains in the donor compartment. Sampling from both compartments over time yields a time-concentration profile of substrate in both the donor and acceptor compartments of the dialysis cell.
A mathematical model describing the diffusion rate of drug across the membrane can be derived for systems containing two or more components in solution. The dialysis rate and binding constant for the substrates are obtained by resolving the equation using nonlinear curve fitting software. Depending on the interactions between the components it is possible to describe the competitive binding that occurs in the solution. The equilibrium binding constant is a measure of the relative concentration of meta-cresol bound to SBE-CD according to the chemical equilibrium equation below: S=meta-cresol, L=SBE-CD. S:L indicates the complex formed between meta-cresol and SBE-CD.
The initial experiments established the equilibrium dialysis flux rates for compound of Formula Ia and meta-cresol across the 500 MWCO dialysis membrane. Three different concentrations of compound of Formula Ia were initially loaded into the donor side of the dialysis well. Samples were withdrawn at various time intervals and concentration of free component was measured using HPLC. […] The smoothed line was a fit to the data using the model for a unitary system presented in the discussion. The equilibrium point for all these control experiments was reached after 50% of the total drug was distributed uniformly across the donor and acceptor sides of the well. This asymptotic approach to equilibrium was modeled and the dialysis rates were calculated, Table II.
The primary method of analyzing the data was to perform calculations from equilibrium dialysis data, as described below. In particular, the rate of diffusion across the membrane was calculated using the following equations:
The rate of diffusion from the donor phase is defined by the following relationship: [D]t−[D]eq=([D]0−[D]eq)e^(−2kt) (1)
Rate of diffusion into the Acceptor Phase: [D]eq−[D]t=[D]eqe^(−2kt) (2) wherein
The basis of calculation in the presence of SBE-CD is to assume that complexation occurs only in the donor phase according to the standard complexation reaction:
The value for CyDF may be substituted into equation 8. […]

[3] = Stability measurements (accelerated stability); details: 3 mg/mL meta-cresol, 100 mg/mL SBE-CD, 10 mgA/mL compound of Formula Ia
Description: Stability Measurements. Potential lead formulations were evaluated under various accelerated stability conditions in order to assess potency and purity of compound of Formula Ia, preservative content and SBE-CD content. For example, in one accelerated stability study, potential lead formulations were placed in stability ovens to measure short-term thermal stability. […] Purity and potency assays to measure compound of Formula Ia, as well as antimicrobial preservatives and SBE-CD content, were performed using validated HPLC methodology. SBE-CD was assayed using GTP 5984.

[4] = Calculated non-sequestered concentrations in formulations; details: preferred formulation: 10 mgA/mL compound, 63 mg/mL SBE-CD, 3.3 mg/mL meta-cresol, pH 4.4
From the text: These constants were used to calculate the concentration of non-sequestered meta-cresol in the formulations tested for anti-microbial efficacy.
The appearance of a plateau at the higher concentrations is only due to the limitation in the bactericidal efficacy measurement method. As the method consists in evaluating the population not killed by the preservative, when the whole population is dead (i.e. none is detectable any more ˜100%) the figure quoted is of the form: a log reduction greater than a value usually between 3 and 5.
The formulations were analyzed for preservative effectiveness.

[5] = binary, approximate ratio 1:1, Compound of Formula Ia 1.0, SBE-CD 1.0 mM
[6] = binary, approximate ratio 1:2, Compound of Formula Ia 0.5, SBE-CD 1.0 mM
[7] = binary, approximate ratio 1:4, Compound of Formula Ia 0.25, SBE-CD 1.0 mM
[8] = ternary, approximate ratio 1:1, Compound of Formula Ia 1.0, Meta-cresol 1.0 mM, SBE-CD 1.0 mM
[9] = ternary, approximate ratio 1:2, Compound of Formula Ia 0.5, Meta-cresol 0.5 mM, SBE-CD 1.0 mM
[10] = ternary, approximate ratio 1:4, Compound of Formula Ia 0.25, Meta-cresol 0.25 mM, SBE-CD 1.0 mM

COc1ccc(C(C)(C)C)cc1CN[C@H]1C2CCN(CC2)[C@H]1C(c1ccccc1)c1ccccc1 [compound of Formula Ia]
binding constant with SBE-CD [1]: 1040 M⁻¹ | binding constant ([1]; pH 4.4): 1040 M⁻¹ | drug binding constant greater than preservative ([2]; binary systems with SBE-CD): 13 fold | Keq [2, 5]: 740 M⁻¹ | k [2, 5]: 0.015 h⁻¹ | Keq [2, 6]: 1092 M⁻¹ | k [2, 6]: 0.013 h⁻¹ | Keq [2, 7]: 1444 M⁻¹ | k [2, 7]: 0.012 h⁻¹ | binding constant with SBE-CD ([2]; equilibrium dialysis method, binary systems, drug ±352 M−1, n=3, preservative ±7 M−1): 1092 M⁻¹ | Keq [2, 8]: 690 M⁻¹ | k [2, 8]: 0.018 h⁻¹ | Keq [2, 9]: 720 M⁻¹ | k [2, 9]: 0.013 h⁻¹ | Keq [2, 10]: 520 M⁻¹ | k [2, 10]: 0.011 h⁻¹ | CONTENT (% INTENT) ([3]; 5° C., 1 week, Amber-Treated): 97 % INTENT | CONTENT (% INTENT) ([3]; 5° C., 1 week, Amber-Untreated): 96 % INTENT | CONTENT (% INTENT) ([3]; 5° C., 3 weeks, Amber-Treated): 96 % INTENT | CONTENT (% INTENT) ([3]; 5° C., 3 weeks, Amber-Untreated): 95 % INTENT | CONTENT (% INTENT) ([3]; 5° C., 6 weeks, Amber-Treated): 95 % INTENT | CONTENT (% INTENT) ([3]; 5° C., 6 weeks, Amber-Untreated): 94 % INTENT | CONTENT (% INTENT) ([3]; 5° C., 12 weeks, Amber-Treated): 94 % INTENT | CONTENT (% INTENT) ([3]; 5° C., 12 weeks, Amber-Untreated): 94 % INTENT | CONTENT (% INTENT) ([3]; 50° C., 1 week, Amber-Treated): 95 % INTENT | CONTENT (% INTENT) ([3]; 50° C., 1 week, Amber-Untreated): 96 % INTENT | CONTENT (% INTENT) ([3]; 50° C., 3 weeks, Amber-Treated): 95 % INTENT | CONTENT (% INTENT) ([3]; 50° C., 3 weeks, Amber-Untreated): 93 % INTENT | CONTENT (% INTENT) ([3]; 50° C., 6 weeks, Amber-Treated): 96 % INTENT | CONTENT (% INTENT) ([3]; 50° C., 6 weeks, Amber-Untreated): 94 % INTENT | CONTENT (% INTENT) ([3]; 50° C., 12 weeks, Amber-Treated): 95 % INTENT | CONTENT (% INTENT) ([3]; 70° C., 1 week, Amber-Treated): 94 % INTENT | CONTENT (% INTENT) ([3]; 70° C., 1 week, Amber-Untreated): 94 % INTENT | CONTENT (% INTENT) ([3]; 70° C., 2 weeks, Amber-Treated): 94 % INTENT | CONTENT (% INTENT) ([3]; 70° C., 2 weeks, Amber-Untreated): 94 % INTENT | CONTENT (% INTENT) ([3]; 70° C., 3 weeks, Amber-Treated): 92 % INTENT | CONTENT (% INTENT) ([3]; 70° C., 3 weeks, Amber-Untreated): 94 % INTENT | CONTENT (% INTENT) ([3]; 70° C., 6 weeks, Amber-Treated): 92 % INTENT | CONTENT (% INTENT) ([3]; 70° C., 6 weeks, Amber-Untreated): 93 % INTENT | CONTENT (% INTENT) ([3]; 70° C., 12 weeks, Amber-Treated): 93 % INTENT | CONTENT (% INTENT) ([3]; 70° C., 12 weeks, Amber-Untreated): 93 % INTENT | CONTENT (% INTENT) ([3]; ICH Photostability, 1X ICH UV/FI, Amber-Treated): 92 % INTENT | CONTENT (% INTENT) ([3]; ICH Photostability, 1X ICH UV/FI, Amber-Untreated): 93 % INTENT | loss / potency decrease ([3]; after 12 weeks at 70° C., relative to 1 week at 5° C.): 3% | calculated non-sequestered concentration [4]: 1.4 mg/mL
